1 compound from patent publication US20250275959A1, “COMPOUNDS AND METHODS OF THEIR USE” (LEXICON PHARMACEUTICALS, INC., priority 2024, published 2025) can be followed below.

The test in a line: Murine diet-induced obesity (DIO) model, Compound A study. It counts as in vivo, C57BL/6J mice. Conditions: DIO mice. The procedure:
The effects of four representative compounds of the invention were tested in a mouse model of diet-induced obesity (DIO): • Compound A is (R)—N-(tert-butylsulfonyl)-4-(1-(5-(pyridin-3-yloxy)pyridin-2-yl)ethoxy)-3-(trifluoromethyl)benzamide; • Compound B is (R)-4-(1-(5-(cyclopropylmethoxy)pyridin-2-yl)propoxy)-N-((4-(2-(dimethylamino)ethoxy)phenyl)sulfonyl)-2,3-difluorobenzamide; • Compound C is (R)—N-((4-(2-(dimethylamino)ethoxy)piperidin-1l-yl)sulfonyl)-2,3-difluoro-4-(1-(5-(pyridin-2-yloxy)pyridin-2-yl)propoxy)benzamide; and • Compound D is (R)-2,3-difluoro-N-((4-methylpiperazin-1-yl)sulfonyl)-4-(1-(5-(pyridin-2-yloxy)pyridin-2-yl)propoxy)benzamide.
The mice used in these experiments were C57BL/6J mice fed a high-fat diet (D12492 from Research Diets) ad libitum during the study period. The vehicle and test article formulations were 10% w/v Solutol in water.
After a seven-day acclimation period, the DIO model was induced by putting the mice on a high fat diet for ten weeks. After the ten weeks, the DIO mice were equally divided into groups based on body weight, ten mice in each group: the control group (Vehicle) and Compound A at 30 mg/kg.
The animals were pre-dosed for two days prior to formal dosing (once-per-day treatment for every group). From Day 1 to Day 13, the animals in the dosing group were administered orally by gavage at 5:00 p.m. every day as well as weight and food intake were recorded daily. All animals were fasted overnight after dosing on Day 1, Day 4, Day 12 and Day 13, then the blood (retro-orbital bleed) of mice from each group was collected at 7:00 a.m. to separate out the serum on Day 2, Day 5 and Day 13 for measuring total cholesterol levels (TC), triglyceride (TG), aminotransferase alanine (ALT), aspartate aminotransferase (AST) and total bilirubin (TBil) levels. All animals were performed OGTT test (0 min, 30 min, 60 min and 120 min) and measured insulin levels (0 min and 30 min) on Day 14.
• 1. Body weight and Food Consumption: Pre-dose every day starting from Day −1 onwards. • 2. Day −1 and Day 0: Handle mice and gavage with vehicle. • 3. Day 1: Dose˜5:00 PM. Fast overnight. • 4. Day 2: Determine total cholesterol levels and triglyceride, ALT, AST, Total Bilirubin levels 7:00 AM. Resume feeding. • 5. Day 2-3: Dose˜5:00 PM. • 6. Day 4: Dose˜5:00 PM. Fast overnight. • 7. Day 5: Determine total cholesterol levels and triglyceride, ALT, AST, Total Bilirubin levels˜7:00 AM. Resume feeding. • 8. Day 5˜11: Dose˜5:00 PM. • 9. Day 12: Dose˜5:00 PM. Fast overnight. • 10. Day 13: Determine total cholesterol levels and triglyceride, ALT, AST, Total Bilirubin levels 7:00 AM. Resume feeding. • 11. Day 13: Dose˜5:00 PM. Fast overnight. • 12. Day 14: (No drug administration) Oral glucose tolerance test with glucose levels measured at Pre-dose, 30 min, 60 min and 120 min. And insulin levels at Time 0 min, 30 min after the glucose challenge.
Data was provided as mean±SD. Statistical significance was considered when the P value is less than 0.05. Results were analyzed by SPSS software. […]. T-test was used to calculate P value. […]

Entries after “also recorded” stand apart in the source; their conditions may differ.

For `C[C@@H](Oc1ccc(C(=O)NS(=O)(=O)C(C)(C)C)cc1C(F)(F)F)c1ccc(Oc2cccnc2)cn1` [Compound A, (R)—N-(tert-butylsulfonyl)-4-(1-(5-(pyridin-3-yloxy)pyridin-2-yl)ethoxy)-3-(trifluoromethyl)benzamide], the “Body Weight (g)/Day” value was determined as 37.9 ± 1.4 g (30 mg/kg oral daily, Day 1); 36.6 ± 1.4 g (30 mg/kg oral daily, Day 2); 35.8 ± 1.5 g (30 mg/kg oral daily, Day 3); 35.3 ± 1.4 g (30 mg/kg oral daily, Day 4); 34.3 ± 1.3 g (30 mg/kg oral daily, Day 5); 34.2 ± 1.2 g (30 mg/kg oral daily, Day 6). In addition, the “Body Weight (g)/Day” value reads like this: (30 mg/kg oral daily, Day 7) 34.0 ± 1.3 g; (30 mg/kg oral daily, Day 8) 33.9 ± 1.4 g; (30 mg/kg oral daily, Day 9) 33.5 ± 1.4 g; (30 mg/kg oral daily, Day 10) 33.4 ± 1.3 g; (30 mg/kg oral daily, Day 11) 32.9 ± 1.4 g; (30 mg/kg oral daily, Day 12) 32.8 ± 1.3 g. Besides, the “Body Weight (g)/Day” value is, setting by setting: (30 mg/kg, Day 0 (pre-dose)) 38.3 ± 1.4 g; (30 mg/kg, Day −1 (pre-dose)) 38.5 ± 1.6 g. Further, the “mean body weight versus control group” value (30 mg/kg oral daily, Day −1 to Day 12) is recorded as “significantly lower than that of the control group from Day 8 onwards; also recorded: statistically significant effect on the mice's body weights versus control”.
